# From patent US6562862B1, “Methods of inhibiting physiological conditions associated with an excess of neuropeptide Y” (Eli Lilly and Company, priority 1994, dated 2003)
# Target: T1, Y1 (Homo sapiens, UniProt P25929)
# T1 construct: In this assay the cell line SK-N-MC was employed; endogenous in cells; host or cells: SK-N-MC cells (homogenate of scraped, pelleted cells), received from Sloane-Kettering Memorial Hospital
# T1 sequence (P25929 1-384): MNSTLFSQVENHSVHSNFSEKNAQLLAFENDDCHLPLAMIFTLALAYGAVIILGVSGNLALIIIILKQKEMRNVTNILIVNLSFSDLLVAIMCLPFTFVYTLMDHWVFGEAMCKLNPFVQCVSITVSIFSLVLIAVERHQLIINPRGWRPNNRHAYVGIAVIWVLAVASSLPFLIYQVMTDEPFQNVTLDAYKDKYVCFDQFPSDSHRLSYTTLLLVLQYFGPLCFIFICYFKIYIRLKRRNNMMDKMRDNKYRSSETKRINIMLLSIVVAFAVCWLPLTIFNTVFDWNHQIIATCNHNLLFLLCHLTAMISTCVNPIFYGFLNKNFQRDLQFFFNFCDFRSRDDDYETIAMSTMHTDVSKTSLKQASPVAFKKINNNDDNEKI
# Test: Neuropeptide Y Binding Assay (125I-peptide YY, SK-N-MC cell homogenate)
# Conditions: displacement of 0.1 nM 125I-peptide YY, SK-N-MC cells, about two hours at room temperature
# Experimental: The biological activity of the compounds of the present invention was evaluated employing an initial screening assay which rapidly and accurately measured the binding of the tested compound to known neuropeptide Y receptor sites. Assays useful for evaluating neuropeptide Y receptor antagonists are well known in the art. See, e.g., U.S. Pat. No. 5,284,839, issued Feb. 8, 1994, which is herein incorporated by reference. See also, M. W. Walker, et al., Journal of Neurosciences, 8:2438-2446 (1988).
# Neuropeptide Y Binding Assay
# The ability of the compounds of the instant invention were assessed as to their ability to bind to neuropeptide Y using a protocol essentially as described in M. W. Walker, et al., supra. In this assay the cell line SK-N-MC was employed. This cell line was received from Sloane-Kettering Memorial Hospital, New York. These cells were cultured in T-150 flasks using Dulbecco's Minimal Essential Media (DMEM) supplemented with 5% fetal calf serum. The cells were manually removed from the flasks by scraping, pelleted, and stored at −70° C.
# The pellets were resuspended using a glass homogenizer in 25 mM HEPES (pH 7.4) buffer containing 2.5 mM calcium chloride, 1 mM magnesium chloride, and 2 mg/L bacitracin. Incubations were performed in a final volume of 200 μl containing 0.1 nM ^125I-peptide YY (2200 Ci/mmol) and 0.2-0.4 mg protein for about two hours at room temperature.
# Nonspecific binding was defined as the amount of radioactivity remaining bound to the tissue after incubating in the presence of 1 μM neuropeptide Y. In some experiments various concentrations of compounds were included in the incubation mixture.
# Incubations were terminated by rapid filtration through glass fiber filters which had been presoaked in 0.3% polyethyleneimine using a 96-well harvester. The filters were washed with 5 ml of 50 mM Tris (pH 7.4) at 4° C. and rapidly dried at 60° C. The filters were then treated with melt-on scintillation sheets and the radioactivity retained on the filters were counted. The results were analyzed using various software packages. Protein concentrations were measured using standard coumassie protein assay reagents using bovine serum albumin as standards.
row,IC50 [µM],SMILES
1,~10,O=C(c1ccc(OCCN2CCCC2)cc1)c1c(-c2ccc(O)cc2)sc2cc(O)ccc12
2,~12,"COc1ccc2c(C(=O)c3ccc(OCCN4CCCCC4)cc3)c(-c3ccc(O)cc3)sc2c1 [R1=CH3, R2=1-piperidine, R3=H]"
3,~20,"O=C(c1ccc(OCCN2CCCCCC2)cc1)c1c(-c2ccc(O)cc2)sc2cc(O)ccc12 [R1=H, R2=1-hexamethylenimino, R3=H]"
4,~17,"O=C(c1ccc(OCCN2CCCC2)cc1)c1c(-c2ccc(O)cc2)sc2cc(O)ccc12 [R1=H, R2=1-pyrrolidine, R3=H]"
